Measured values published in patent publication US10473647B1, “Peptides for use in treatment and diagnosis of type 1 diabetes” (ImmusanT, Inc., priority 2014, dated 2019).

Experiments:
Type in all cases: cell-based, human
[1] = tested on: CD4+ T cell depleted blood; test: Whole blood cytokine assay, IFNg, CD4+ T cell depleted blood (Example 2); conditions: T1D Subjects (n of 6), 24 h, peptides 20 ug/mL, pools 4 ug/mL, NEX-01/Nexgen POOL 25 uM, CEFT 1 ug/mL
Experimental: (§1) Depletion of human CD4+ and CD8+ T cells directly from whole blood, using CD4 and CD8 Dynabeads respectively (Dynabeads Human CD4, Life Technologies, #11145D; Dynabeads Human CD8, Life Technologies, #11145D), was done according to the manufacturer's protocol. Briefly, the Dynabeads were resuspended and the desired volume was transferred to a 15 Ml tube. The calculation of the volume of beads added to whole blood was 2×10^6 CD4 beads (25 μL) and 4×10^6 CD8 beads (50 μL) per Ml of whole blood. The beads were first washed with 3 Ml PBS, vortexed and placed on the magnet for 1 minute. Supernatant was discarded and beads were removed from the magnet. Whole blood was then added to the beads at the volume calculated for the concentration of beads in the tubes. The tubes containing whole blood and Dynabeads were then incubated 45 minutes at 4° C. on a continuous rocker.
(§2) Tubes were then placed into the magnet for 2 minutes. The whole blood supernatant was then transferred to a new tube for use in 24-hour Whole Blood Assay or for Flow Cytometric Analysis. Magnetic beads were discarded.
(§3) The depleted blood as well as the remaining undepleted whole blood was then utilized in whole blood cytokine release assays. T-cell cytokine responses were assessed for reactivity to pools of 17mer peptides encompassing all unique 12mer amino-acid sequences derived from pancreatic islet antigens commonly recognized by autoantibodies in T1D: insulin, glutamic decarboxylase-65 (GAD65), and insulinoma-associated antigen (IA)-2 as provided in Table 13A and Table 13B.
(§4) Fresh heparinized blood was incubated with peptide. Concentrations of individual islet-autoantigen peptides were 20 μg/mL and constituent peptides in islet-autoantigen pools were 4 ug/mL. Control MHC class II peptide mix CEFT was used at 1 μg/mL. Gliadin peptide pools were added to whole blood assays at 25 μM. Whole blood assays were incubated for 24 h at 37° C. in 5% CO2. Plasma was separated from blood after centrifugation at 500×g for 10 minutes at room temperature and then transferred to a corresponding well in a “mirror image” sterile 96-well plate. and frozen at −80° C. until use. Multiplex bead-based cytokine assays (MAGPix) were performed according to manufacturer's instructions on thawed plasma. Concentrations of interferon (IFN)-γ-induced protein-10 (IP-10), interleukin (IL)-2 and IFN-γ. Table 14 is a summary of the results for the whole blood cytokine assays which expresses the data in the number of subjects that are positive for ≥1.25 fold production of cytokine over cells incubated with medium only (background).

[2] = tested on: CD4+ T cell depleted blood; test: Whole blood cytokine assay, IP-10, CD4+ T cell depleted blood (Example 2); conditions: T1D Subjects (n of 6), 24 h, peptides 20 ug/mL, pools 4 ug/mL, NEX-01/Nexgen POOL 25 uM, CEFT 1 ug/mL
Experimental: as §1, §2, §3, §4

[3] = tested on: CD8+ T cell depleted blood; test: Whole blood cytokine assay, IP-10, CD8+ T cell depleted blood (Example 2); conditions: T1D Subjects (n of 6), 24 h, peptides 20 ug/mL, pools 4 ug/mL, NEX-01/Nexgen POOL 25 uM, CEFT 1 ug/mL
Experimental: as §1, §2, §3, §4

undepleted whole blood [4] = test: Whole blood cytokine assay, IL-2, undepleted blood, number of subjects with >=1.25 fold over medium (Example 2); conditions: 24 h, peptides 20 ug/mL, pools 4 ug/mL, NEX-01/Nexgen POOL 25 uM, CEFT 1 ug/mL
Experimental: as §3, §4

undepleted whole blood [5] = test: Whole blood cytokine assay, IP-10, undepleted blood, number of subjects with >=1.25 fold over medium (Example 2); conditions: 24 h, peptides 20 ug/mL, pools 4 ug/mL, NEX-01/Nexgen POOL 25 uM, CEFT 1 ug/mL
Experimental: as §3, §4

[6] = tested on: CD8+ T cell depleted blood; test: Whole blood cytokine assay, IFNg, CD8+ T cell depleted blood (Example 2); conditions: T1D Subjects (n of 6), 24 h, peptides 20 ug/mL, pools 4 ug/mL, NEX-01/Nexgen POOL 25 uM, CEFT 1 ug/mL
Experimental: as §1, §2, §3, §4

[7] = tested on: CD8+ T cell depleted blood; test: Whole blood cytokine assay, IL-2, CD8+ T cell depleted blood (Example 2); conditions: T1D Subjects (n of 6), 24 h, peptides 20 ug/mL, pools 4 ug/mL, NEX-01/Nexgen POOL 25 uM, CEFT 1 ug/mL
Experimental: as §1, §2, §3, §4

undepleted whole blood [8] = test: Whole blood cytokine assay, IFNg, undepleted blood, number of subjects with >=1.25 fold over medium (Example 2); conditions: 24 h, peptides 20 ug/mL, pools 4 ug/mL, NEX-01/Nexgen POOL 25 uM, CEFT 1 ug/mL
Experimental: as §3, §4

[9] = tested on: whole blood from subjects with Type 1 Diabetes; test: Whole blood IP-10 release assay, fine mapping of preproinsulin epitope (Example 3); conditions: peptide 10 μM; average of 4 subjects with T1D; FIG. 1A-1C
From the text: The leader sequence of the preproinsulin epitope was fine mapped with lys-substituted peptides and C- and N-terminal truncations. […] Without wishing to be bound by any theory, a therapeutic and/or diagnostic peptide in accordance with the present disclosure may be selected to avoid CD8 activity but ensure that CD4 T cells were targeted. The data are the averages of 4 subjects whole blood IP-10 release measured as fold change over medium alone without peptide.
Whole blood was collected from 4 subjects with Type 1 Diabetes aged between 29 and 45-years old. […] In whole blood assays using fresh heparinized blood incubated with peptide (final concentration 10 μM) in phosphate buffered saline (PBS) and DMSO in 96-well round-bottom plates. Peptides (purity by LC-MS >80%) were truncations or lysine-substituted variants of a sequence in preproinsulin shown to be immunogenic in previous studies comparing peptides spanning this polypeptide. […] Assay plates were run on the Luminex MAGPIX magnetic plate reader. The upper limit of quantitation is 10,000 pg/mL and the lower limit of detection is 3.2 pg/mL. The Fold Change of cytokine concentrations from incubations with individual peptides was calculated by dividing the cytokine concentration from the individual peptide incubations by the cytokine concentration of incubations with PBS and DMSO (NIL) on the same assay plates. […]

[10] = tested on: whole blood from subjects with T1D and Celiac disease; test: Whole blood cytokine release assay, IFN-γ (MAGPIX), Example 1; conditions: individual 17mer 20 μg/mL, blood 6 days after commencing oral gluten challenge
[11] = tested on: whole blood from subjects with T1D and Celiac disease; test: Whole blood cytokine release assay, IL-2 (MAGPIX), Example 1; conditions: individual 17mer 20 μg/mL, blood 6 days after commencing oral gluten challenge
[12] = tested on: whole blood from subjects with T1D and Celiac disease; test: Whole blood cytokine release assay, IP-10 (MAGPIX), Example 1; conditions: individual 17mer 20 μg/mL, blood 6 days after commencing oral gluten challenge
[13] = T1D Subjects (n of 6), Undepleted WB
[14] = Healthy Subjects (n of 4), whole blood

## L2P1, 049 (FNQLSTGLDMVGLAADW)
[1]
  Fold Change IFNg, number of subjects positive for ≥1.25 fold production of cytokine over medium only: 1/6
[2]
  Fold Change IP-10, number of subjects positive for ≥1.25 fold production of cytokine over medium only: 2/6
[3]
  Fold Change IP-10, number of subjects positive for ≥1.25 fold production of cytokine over medium only: 2/6

## L2P1, 051 (NMFTYEIAPVFVLLEYV)
Undepleted whole blood [4]; [13]
  Fold Change IL-2, number of subjects positive for ≥1.25 fold production of cytokine over medium only: 1/6
Undepleted whole blood [5]; [14]
  Fold Change IP-10, number of subjects positive for ≥1.25 fold production of cytokine over medium only: 3/4
Undepleted whole blood [5]; [13]
  Fold Change IP-10, number of subjects positive for ≥1.25 fold production of cytokine over medium only: 4/6
[1]
  Fold Change IFNg, number of subjects positive for ≥1.25 fold production of cytokine over medium only: 1/6
[2]
  Fold Change IP-10, number of subjects positive for ≥1.25 fold production of cytokine over medium only: 3/6
[6]
  Fold Change IFNg, number of subjects positive for ≥1.25 fold production of cytokine over medium only: 2/6
[7]
  Fold Change IL-2, number of subjects positive for ≥1.25 fold production of cytokine over medium only: 2/6
[3]
  Fold Change IP-10, number of subjects positive for ≥1.25 fold production of cytokine over medium only: 5/6

## L3P1, 007 (SPLQAELLPPLLEHLLL)
Undepleted whole blood [5]; [14]
  Fold Change IP-10, number of subjects positive for ≥1.25 fold production of cytokine over medium only: 2/4
[1]
  Fold Change IFNg, number of subjects positive for ≥1.25 fold production of cytokine over medium only: 1/6
[3]
  Fold Change IP-10, number of subjects positive for ≥1.25 fold production of cytokine over medium only: 1/6

## L3P1, 046 (PKAARPPVTPVLLEKKS)
Undepleted whole blood [5]; [14]
  Fold Change IP-10, number of subjects positive for ≥1.25 fold production of cytokine over medium only: 1/4
Undepleted whole blood [5]; [13]
  Fold Change IP-10, number of subjects positive for ≥1.25 fold production of cytokine over medium only: 1/6
[3]
  Fold Change IP-10, number of subjects positive for ≥1.25 fold production of cytokine over medium only: 2/6

## L3P2, 076 (GRTGTYILIDMVLNRMA)
Undepleted whole blood [8]; [14]
  Fold Change IFNg, number of subjects positive for ≥1.25 fold production of cytokine over medium only: 1/4
Undepleted whole blood [8]; [13]
  Fold Change IFNg, number of subjects positive for ≥1.25 fold production of cytokine over medium only: 4/6
Undepleted whole blood [4]; [14]
  Fold Change IL-2, number of subjects positive for ≥1.25 fold production of cytokine over medium only: 1/4
Undepleted whole blood [4]; [13]
  Fold Change IL-2, number of subjects positive for ≥1.25 fold production of cytokine over medium only: 5/6
Undepleted whole blood [5]; [14]
  Fold Change IP-10, number of subjects positive for ≥1.25 fold production of cytokine over medium only: 3/4
Undepleted whole blood [5]; [13]
  Fold Change IP-10, number of subjects positive for ≥1.25 fold production of cytokine over medium only: 6/6
[2]
  Fold Change IP-10, number of subjects positive for ≥1.25 fold production of cytokine over medium only: 3/6
[6]
  Fold Change IFNg, number of subjects positive for ≥1.25 fold production of cytokine over medium only: 5/6
[7]
  Fold Change IL-2, number of subjects positive for ≥1.25 fold production of cytokine over medium only: 6/6
[3]
  Fold Change IP-10, number of subjects positive for ≥1.25 fold production of cytokine over medium only: 5/6

## LLALLALWGPD [SEQ ID NO: 14]
[9]
  bioactivity in whole blood IP-10 release assay (fold change over medium alone), in words: compatible with an epitope for CD4 T cells

## YTPKTRREAEDLQVGQV [SEQ ID NO: 55]
[10]; Subject 1
  IFN-g fold-change: 0.51
  IFN-g fold-change (preproinsulin peptides): 0.51 fold
[10]; Subject 2
  IFN-g fold-change: 0.82
  IFN-g fold-change (preproinsulin peptides): 0.82 fold
[10]; Subject 6
  IFN-g fold-change: 1.00
  IFN-g fold-change (preproinsulin peptides): 1.00 fold
[10]; Subject 7
  IFN-g fold-change: 1.86
  IFN-g fold-change (preproinsulin peptides): 1.86 fold
[11]; Subject 1
  IL-2 fold-change: 1.00
  IL-2 fold-change (preproinsulin peptides): 1.00 fold
[11]; Subject 2
  IL-2 fold-change: 1.00
  IL-2 fold-change (preproinsulin peptides): 1.00 fold
[11]; Subject 6
  IL-2 fold-change: 1.04
  IL-2 fold-change (preproinsulin peptides): 1.04 fold
[11]; Subject 7
  IL-2 fold-change: 8.00
  IL-2 fold-change (preproinsulin peptides): 8.00 fold
[12]; Subject 1
  IP-10 fold-change: 1.06
  IP-10 fold-change (preproinsulin peptides): 1.06 fold
[12]; Subject 2
  IP-10 fold-change: 1.22
  IP-10 fold-change (preproinsulin peptides): 1.22 fold
[12]; Subject 6
  IP-10 fold-change: 1.56
  IP-10 fold-change (preproinsulin peptides): 1.56 fold
[12]; Subject 7
  IP-10 fold-change: 1.42
  IP-10 fold-change (preproinsulin peptides): 1.42 fold
